Experimental data published in the kinase profiling compilation of Christmann-Franck et al. (2016).

Experiments:
Assay in all cases: KINOMEscan competition binding
Conditions in all cases: compound 10.0 µM
ABL2 (human) = ABL2 (human) (UniProt P42684)
AURKB (human) = AURKB (human) (UniProt Q96GD4)
BMPR2 (human) = BMPR2 (human) (UniProt Q13873)
CDK3 (human) = CDK3 (human) (UniProt Q00526)
CDK7 (human) = CDK7 (human) (UniProt P50613)
CSK (human) = CSK (human) (UniProt P41240)
CSNK1G2 (human) = CSNK1G2 (human) (UniProt P78368)
CSNK2A1 (human) = CSNK2A1 (human) (UniProt P68400)
CSNK2A2 (human) = CSNK2A2 (human) (UniProt P19784)
DCLK2 (human) = DCLK2 (human) (UniProt Q8N568)
EPHA6 (human) = EPHA6 (human) (UniProt Q9UF33)
Chain of EPHA6 (human) (Q9UF33 whole entry, looked up): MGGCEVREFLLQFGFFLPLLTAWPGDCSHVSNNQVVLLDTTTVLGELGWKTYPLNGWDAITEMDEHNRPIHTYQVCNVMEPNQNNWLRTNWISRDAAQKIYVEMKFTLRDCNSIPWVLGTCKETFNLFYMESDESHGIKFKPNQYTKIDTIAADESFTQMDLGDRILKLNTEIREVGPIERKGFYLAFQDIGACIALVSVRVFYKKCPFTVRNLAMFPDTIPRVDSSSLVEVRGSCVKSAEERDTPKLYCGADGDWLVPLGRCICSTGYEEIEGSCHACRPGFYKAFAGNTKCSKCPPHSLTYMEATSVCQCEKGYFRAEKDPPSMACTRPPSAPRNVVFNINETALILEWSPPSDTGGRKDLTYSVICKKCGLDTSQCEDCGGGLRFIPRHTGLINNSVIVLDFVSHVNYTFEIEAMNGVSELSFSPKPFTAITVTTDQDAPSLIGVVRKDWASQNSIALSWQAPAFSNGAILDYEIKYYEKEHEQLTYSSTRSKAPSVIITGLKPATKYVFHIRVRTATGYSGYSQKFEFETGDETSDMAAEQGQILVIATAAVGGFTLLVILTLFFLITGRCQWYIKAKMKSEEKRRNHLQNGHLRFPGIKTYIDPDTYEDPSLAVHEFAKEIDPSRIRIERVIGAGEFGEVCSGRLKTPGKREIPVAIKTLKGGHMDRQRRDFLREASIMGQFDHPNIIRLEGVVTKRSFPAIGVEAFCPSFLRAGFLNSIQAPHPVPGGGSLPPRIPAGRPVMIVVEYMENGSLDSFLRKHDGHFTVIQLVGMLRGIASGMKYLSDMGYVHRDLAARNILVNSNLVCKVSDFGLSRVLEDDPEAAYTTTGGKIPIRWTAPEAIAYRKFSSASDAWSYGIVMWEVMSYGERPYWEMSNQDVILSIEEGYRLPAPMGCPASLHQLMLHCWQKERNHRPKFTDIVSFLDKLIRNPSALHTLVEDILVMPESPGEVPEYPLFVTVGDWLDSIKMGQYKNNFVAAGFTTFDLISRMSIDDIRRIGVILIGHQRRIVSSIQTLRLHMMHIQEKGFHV

EPHB4 (human) = EPHB4 (human) (UniProt P54760)
ERBB4 (human) = ERBB4 (human) (UniProt Q15303)
FER (human) = FER (human) (UniProt P16591)
FLT1 (human) = FLT1 (human) (UniProt P17948)
MAP2K1 (human) = MAP2K1 (human) (UniProt Q02750)
MAP3K10 (human) = MAP3K10 (human) (UniProt Q02779)
MAP3K5 (human) = MAP3K5 (human) (UniProt Q99683)
MELK (human) = MELK (human) (UniProt Q14680)
MINK1 (human) = MINK1 (human) (UniProt Q8N4C8)
NUAK1 (human) = NUAK1 (human) (UniProt O60285)
PAK6 (human) = PAK6 (human) (UniProt Q9NQU5)
Chain of PAK6 (human) (Q9NQU5 whole entry, looked up): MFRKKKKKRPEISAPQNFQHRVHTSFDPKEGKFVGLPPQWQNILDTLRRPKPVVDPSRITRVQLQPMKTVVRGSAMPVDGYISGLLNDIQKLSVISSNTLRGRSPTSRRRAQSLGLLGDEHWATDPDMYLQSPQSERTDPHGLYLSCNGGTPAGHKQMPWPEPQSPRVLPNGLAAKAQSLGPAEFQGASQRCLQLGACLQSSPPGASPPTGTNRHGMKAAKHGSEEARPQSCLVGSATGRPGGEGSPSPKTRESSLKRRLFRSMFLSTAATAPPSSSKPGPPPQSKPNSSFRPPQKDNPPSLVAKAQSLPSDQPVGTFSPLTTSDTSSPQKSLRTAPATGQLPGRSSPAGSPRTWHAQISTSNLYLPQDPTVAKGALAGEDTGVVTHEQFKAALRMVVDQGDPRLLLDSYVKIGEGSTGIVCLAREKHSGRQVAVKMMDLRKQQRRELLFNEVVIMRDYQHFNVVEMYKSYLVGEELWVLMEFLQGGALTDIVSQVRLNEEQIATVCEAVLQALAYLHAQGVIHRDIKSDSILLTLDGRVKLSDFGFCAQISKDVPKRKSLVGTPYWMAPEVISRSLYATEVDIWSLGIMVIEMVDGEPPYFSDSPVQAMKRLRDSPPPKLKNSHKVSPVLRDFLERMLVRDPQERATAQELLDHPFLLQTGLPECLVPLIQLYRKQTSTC

PIP4K2B (human) = PIP4K2B (human) (UniProt P78356)
PIP5K1A (human) = PIP5K1A (human) (UniProt Q99755)
PRKAA1 (human) = PRKAA1 (human) (UniProt Q13131)
PRKD3 (human) = PRKD3 (human) (UniProt O94806)
PTK2 (human) = PTK2 (human) (UniProt Q05397)
RIOK3 (human) = RIOK3 (human) (UniProt O14730)
Chain of RIOK3 (human) (O14730 whole entry, looked up): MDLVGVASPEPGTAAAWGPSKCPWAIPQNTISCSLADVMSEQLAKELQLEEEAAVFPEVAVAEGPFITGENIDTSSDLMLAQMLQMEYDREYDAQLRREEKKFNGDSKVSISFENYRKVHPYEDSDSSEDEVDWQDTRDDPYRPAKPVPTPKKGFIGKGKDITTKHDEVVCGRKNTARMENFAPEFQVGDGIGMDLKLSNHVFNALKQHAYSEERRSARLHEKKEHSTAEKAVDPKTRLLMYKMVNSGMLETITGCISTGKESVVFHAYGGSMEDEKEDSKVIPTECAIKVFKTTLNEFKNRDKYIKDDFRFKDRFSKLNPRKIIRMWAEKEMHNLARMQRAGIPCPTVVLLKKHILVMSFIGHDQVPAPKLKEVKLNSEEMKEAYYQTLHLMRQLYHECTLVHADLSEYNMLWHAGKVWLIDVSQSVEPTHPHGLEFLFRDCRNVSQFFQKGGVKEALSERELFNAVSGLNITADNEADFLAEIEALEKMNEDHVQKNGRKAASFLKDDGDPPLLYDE

ROS1 (human) = ROS1 (human) (UniProt P08922)
RPS6KA3 KD1 (human) = RPS6KA3 KD1 (human) (UniProt P51812)
RPS6KA4 KD2 (human) = RPS6KA4 KD2 (human) (UniProt O75676)
STK24 (human) = STK24 (human) (UniProt Q9Y6E0)
STK38L (human) = STK38L (human) (UniProt Q9Y2H1)
Chain of STK38L (human) (Q9Y2H1 whole entry, looked up): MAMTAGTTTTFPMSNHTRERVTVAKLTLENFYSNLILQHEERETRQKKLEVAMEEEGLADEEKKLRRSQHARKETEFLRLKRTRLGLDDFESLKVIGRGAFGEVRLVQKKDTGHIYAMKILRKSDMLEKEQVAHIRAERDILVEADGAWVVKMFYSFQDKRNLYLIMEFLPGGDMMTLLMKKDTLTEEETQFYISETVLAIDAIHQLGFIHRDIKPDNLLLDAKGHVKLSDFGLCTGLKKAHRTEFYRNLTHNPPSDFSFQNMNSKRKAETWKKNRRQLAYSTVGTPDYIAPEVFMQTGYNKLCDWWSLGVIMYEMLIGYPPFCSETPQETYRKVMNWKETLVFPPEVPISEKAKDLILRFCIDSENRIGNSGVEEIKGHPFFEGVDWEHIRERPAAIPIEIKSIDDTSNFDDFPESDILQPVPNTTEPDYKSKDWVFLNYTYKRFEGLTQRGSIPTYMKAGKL

TGFBR1 (human) = TGFBR1 (human) (UniProt P36897)
Chain of TGFBR1 (human) (P36897 whole entry, looked up): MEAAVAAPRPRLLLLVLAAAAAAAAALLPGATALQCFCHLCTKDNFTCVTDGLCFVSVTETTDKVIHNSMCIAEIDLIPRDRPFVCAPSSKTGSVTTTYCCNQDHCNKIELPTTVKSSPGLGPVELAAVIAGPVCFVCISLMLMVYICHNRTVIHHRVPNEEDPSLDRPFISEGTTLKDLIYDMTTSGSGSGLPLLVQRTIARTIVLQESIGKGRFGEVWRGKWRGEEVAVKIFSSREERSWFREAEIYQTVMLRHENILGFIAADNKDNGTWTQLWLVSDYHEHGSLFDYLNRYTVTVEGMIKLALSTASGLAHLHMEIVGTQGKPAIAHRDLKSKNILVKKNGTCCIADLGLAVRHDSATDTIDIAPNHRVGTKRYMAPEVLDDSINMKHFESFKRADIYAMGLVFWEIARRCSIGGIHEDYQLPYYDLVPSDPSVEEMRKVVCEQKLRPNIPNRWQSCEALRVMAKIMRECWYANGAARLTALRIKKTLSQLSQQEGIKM

TNK2 (human) = TNK2 (human) (UniProt Q07912)
ULK3 (human) = ULK3 (human) (UniProt Q6PHR2)
WEE1 (human) = WEE1 (human) (UniProt P30291)
ZAP70 (human) = ZAP70 (human) (UniProt P43403)
STK36 (human) = STK36 (human) (UniProt Q9NRP7)
ULK1 (human) = ULK1 (human) (UniProt O75385)
Chain of ULK1 (human) (O75385 whole entry, looked up): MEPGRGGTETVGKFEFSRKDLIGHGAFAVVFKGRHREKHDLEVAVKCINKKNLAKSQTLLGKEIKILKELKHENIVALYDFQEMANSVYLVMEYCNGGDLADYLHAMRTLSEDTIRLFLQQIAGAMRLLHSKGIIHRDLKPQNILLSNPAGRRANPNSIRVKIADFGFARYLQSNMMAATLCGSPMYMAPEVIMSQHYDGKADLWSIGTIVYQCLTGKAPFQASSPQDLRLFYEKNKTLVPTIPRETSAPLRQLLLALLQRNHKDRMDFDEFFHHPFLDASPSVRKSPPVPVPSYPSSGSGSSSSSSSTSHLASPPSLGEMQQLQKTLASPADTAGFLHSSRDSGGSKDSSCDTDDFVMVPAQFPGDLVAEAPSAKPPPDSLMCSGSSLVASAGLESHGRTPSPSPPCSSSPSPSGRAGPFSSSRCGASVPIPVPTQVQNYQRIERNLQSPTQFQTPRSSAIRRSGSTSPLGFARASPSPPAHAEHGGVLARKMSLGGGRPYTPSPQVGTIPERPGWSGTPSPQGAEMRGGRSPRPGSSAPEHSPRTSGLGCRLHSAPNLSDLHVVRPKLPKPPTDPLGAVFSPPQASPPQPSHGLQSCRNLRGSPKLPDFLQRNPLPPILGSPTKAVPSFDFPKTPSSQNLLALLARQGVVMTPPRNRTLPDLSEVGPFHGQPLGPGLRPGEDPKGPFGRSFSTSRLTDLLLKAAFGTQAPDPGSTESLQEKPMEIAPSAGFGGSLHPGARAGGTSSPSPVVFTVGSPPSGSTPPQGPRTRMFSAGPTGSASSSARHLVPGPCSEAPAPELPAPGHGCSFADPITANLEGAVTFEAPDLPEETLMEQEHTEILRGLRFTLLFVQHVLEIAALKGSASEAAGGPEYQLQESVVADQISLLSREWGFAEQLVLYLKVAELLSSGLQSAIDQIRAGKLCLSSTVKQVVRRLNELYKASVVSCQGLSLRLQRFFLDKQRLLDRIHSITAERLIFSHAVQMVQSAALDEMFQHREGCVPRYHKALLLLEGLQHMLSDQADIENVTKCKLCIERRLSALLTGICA

Chain of CDK3 (human) (Q00526 whole entry, looked up): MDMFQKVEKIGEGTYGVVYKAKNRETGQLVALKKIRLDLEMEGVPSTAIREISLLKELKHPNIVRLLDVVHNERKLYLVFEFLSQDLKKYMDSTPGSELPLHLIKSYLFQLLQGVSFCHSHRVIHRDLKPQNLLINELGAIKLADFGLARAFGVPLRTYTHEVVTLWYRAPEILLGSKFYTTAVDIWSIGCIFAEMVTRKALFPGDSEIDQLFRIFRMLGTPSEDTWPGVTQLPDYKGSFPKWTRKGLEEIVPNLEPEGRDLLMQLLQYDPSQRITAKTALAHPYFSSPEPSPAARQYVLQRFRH
Chain of CSK (human) (P41240 whole entry, looked up): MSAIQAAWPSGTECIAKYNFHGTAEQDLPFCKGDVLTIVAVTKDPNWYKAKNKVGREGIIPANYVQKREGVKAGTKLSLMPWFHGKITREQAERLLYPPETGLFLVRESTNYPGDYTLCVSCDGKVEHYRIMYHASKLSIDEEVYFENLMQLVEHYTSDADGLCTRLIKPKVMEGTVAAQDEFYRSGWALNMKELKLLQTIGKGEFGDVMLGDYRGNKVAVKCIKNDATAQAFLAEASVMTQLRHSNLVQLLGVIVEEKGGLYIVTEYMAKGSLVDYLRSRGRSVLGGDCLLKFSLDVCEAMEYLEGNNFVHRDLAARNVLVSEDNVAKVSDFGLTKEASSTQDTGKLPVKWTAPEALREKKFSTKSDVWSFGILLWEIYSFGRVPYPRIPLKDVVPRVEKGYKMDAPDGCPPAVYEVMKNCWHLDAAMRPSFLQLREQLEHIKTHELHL

| Structure (SMILES) | kinase still bound, per cent of control (ABL2 (human)) [%] | kinase still bound, per cent of control (BMPR2 (human)) [%] | kinase still bound, per cent of control (CDK3 (human)) [%] | kinase still bound, per cent of control (CDK7 (human)) [%] | kinase still bound, per cent of control (CSK (human)) [%] | kinase still bound, per cent of control (CSNK1G2 (human)) [%] | kinase still bound, per cent of control (CSNK2A1 (human)) [%] | kinase still bound, per cent of control (CSNK2A2 (human)) [%] | kinase still bound, per cent of control (DCLK2 (human)) [%] | kinase still bound, per cent of control (EPHA6 (human)) [%] | kinase still bound, per cent of control (EPHB4 (human)) [%] | kinase still bound, per cent of control (FLT1 (human)) [%] | kinase still bound, per cent of control (MAP3K10 (human)) [%] | kinase still bound, per cent of control (MAP3K5 (human)) [%] | kinase still bound, per cent of control (MELK (human)) [%] | kinase still bound, per cent of control (MINK1 (human)) [%] | kinase still bound, per cent of control (NUAK1 (human)) [%] | kinase still bound, per cent of control (PAK6 (human)) [%] | kinase still bound, per cent of control (PIP4K2B (human)) [%] | kinase still bound, per cent of control (PIP5K1A (human)) [%] | further results |
| --- | --- | --- | --- | --- | --- | --- | --- | --- | --- | --- | --- | --- | --- | --- | --- | --- | --- | --- | --- | --- | --- |
| Cc1ccc2nc(NCCN)c3ncc(C)n3c2c1 | 100 | 96 | 100 | 6.3 | 100 | 97 | 33 | 86 | 100 | 100 | 100 | 98 | 100 | 80 | 96 | 100 | 88 | 100 | 100 | 92 | kinase still bound, per cent of control (AURKB (human)): 67%; kinase still bound, per cent of control (ERBB4 (human)): 100%; kinase still bound, per cent of control (FER (human)): 98%; kinase still bound, per cent of control (MAP2K1 (human)): 100%; kinase still bound, per cent of control (PRKAA1 (human)): 82%; kinase still bound, per cent of control (PRKD3 (human)): 41%; kinase still bound, per cent of control (PTK2 (human)): 97%; kinase still bound, per cent of control (RIOK3 (human)): 100%; kinase still bound, per cent of control (ROS1 (human)): 77%; kinase still bound, per cent of control (RPS6KA3 KD1 (human)): 100%; kinase still bound, per cent of control (RPS6KA4 KD2 (human)): 15%; kinase still bound, per cent of control (STK24 (human)): 81%; kinase still bound, per cent of control (STK38L (human)): 100%; kinase still bound, per cent of control (TGFBR1 (human)): 100%; kinase still bound, per cent of control (TNK2 (human)): 100%; kinase still bound, per cent of control (ULK3 (human)): 76%; kinase still bound, per cent of control (WEE1 (human)): 100%; kinase still bound, per cent of control (ZAP70 (human)): 100% |
| CCCS(=O)(=O)Nc1ccc(F)c(C(=O)c2c[nH]c3ncc(-c4ccc(Cl)cc4)cc23)c1F | 32 | 57 | 94 | 82 | 7.4 | 88 | 100 | 100 | 100 | 100 | 100 | 43 | 73 | 100 | 100 | 38 | 100 | 74 | 100 | 100 | kinase still bound, per cent of control (FER (human)): 54%; kinase still bound, per cent of control (MAP2K1 (human)): 10%; kinase still bound, per cent of control (PRKAA1 (human)): 89%; kinase still bound, per cent of control (PRKD3 (human)): 44%; kinase still bound, per cent of control (PTK2 (human)): 63%; kinase still bound, per cent of control (RIOK3 (human)): 100%; kinase still bound, per cent of control (ROS1 (human)): 100%; kinase still bound, per cent of control (RPS6KA3 KD1 (human)): 76%; kinase still bound, per cent of control (RPS6KA4 KD2 (human)): 96%; kinase still bound, per cent of control (STK24 (human)): 77%; kinase still bound, per cent of control (STK36 (human)): 4.6%; kinase still bound, per cent of control (STK38L (human)): 100%; kinase still bound, per cent of control (TGFBR1 (human)): 53%; kinase still bound, per cent of control (TNK2 (human)): 6.9%; kinase still bound, per cent of control (ULK1 (human)): 93%; kinase still bound, per cent of control (ULK3 (human)): 46%; kinase still bound, per cent of control (WEE1 (human)): 100%; kinase still bound, per cent of control (ZAP70 (human)): 90% |
| CCC(=O)N1CCN(c2ccc(-n3c(=O)ccc4cnc5ccc(-c6cnc7ccccc7c6)cc5c43)cc2C(F)(F)F)CC1 | 99 | 59 | 100 | 57 | 71 | 100 | 94 | 11 | 100 | 75 | 85 | 79 | 99 | 100 | 50 | 19 | 100 | 77 | 100 | 89 | kinase still bound, per cent of control (AURKB (human)): 82%; kinase still bound, per cent of control (ERBB4 (human)): 100%; kinase still bound, per cent of control (MAP2K1 (human)): 100%; kinase still bound, per cent of control (PRKAA1 (human)): 91%; kinase still bound, per cent of control (PRKD3 (human)): 100%; kinase still bound, per cent of control (PTK2 (human)): 14%; kinase still bound, per cent of control (RIOK3 (human)): 90%; kinase still bound, per cent of control (ROS1 (human)): 71%; kinase still bound, per cent of control (RPS6KA3 KD1 (human)): 38%; kinase still bound, per cent of control (RPS6KA4 KD2 (human)): 100%; kinase still bound, per cent of control (STK24 (human)): 100%; kinase still bound, per cent of control (STK36 (human)): 17%; kinase still bound, per cent of control (STK38L (human)): 94%; kinase still bound, per cent of control (TGFBR1 (human)): 70%; kinase still bound, per cent of control (TNK2 (human)): 51%; kinase still bound, per cent of control (ULK1 (human)): 100%; kinase still bound, per cent of control (ULK3 (human)): 100%; kinase still bound, per cent of control (WEE1 (human)): 42%; kinase still bound, per cent of control (ZAP70 (human)): 100% |
| O=C(NOC[C@H](O)CO)c1ccc(F)c(F)c1Nc1ccc(I)cc1F | 90 | 92 | 69 | 83 | 100 | 95 | 77 | 100 | 100 | 94 | 100 | 94 | 100 | 91 | 80 | 94 | 81 | 94 | 100 | 91 | kinase still bound, per cent of control (AURKB (human)): 99%; kinase still bound, per cent of control (ERBB4 (human)): 100%; kinase still bound, per cent of control (FER (human)): 100%; kinase still bound, per cent of control (PRKAA1 (human)): 100%; kinase still bound, per cent of control (PRKD3 (human)): 70%; kinase still bound, per cent of control (PTK2 (human)): 85%; kinase still bound, per cent of control (RIOK3 (human)): 100%; kinase still bound, per cent of control (ROS1 (human)): 92%; kinase still bound, per cent of control (RPS6KA3 KD1 (human)): 100%; kinase still bound, per cent of control (RPS6KA4 KD2 (human)): 100%; kinase still bound, per cent of control (STK24 (human)): 88%; kinase still bound, per cent of control (STK36 (human)): 74%; kinase still bound, per cent of control (STK38L (human)): 100%; kinase still bound, per cent of control (TGFBR1 (human)): 100%; kinase still bound, per cent of control (TNK2 (human)): 72%; kinase still bound, per cent of control (ULK1 (human)): 100%; kinase still bound, per cent of control (ULK3 (human)): 89%; kinase still bound, per cent of control (WEE1 (human)): 67%; kinase still bound, per cent of control (ZAP70 (human)): 89% |
